Experimental data from ChEMBL document CHEMBL1201862, “PubChem BioAssay data set” (2004).
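1) Cells in 96-well plates. 2) Compound, 48 h, 5 concentrations. 3) Linear interpolation between surrounding doses. 4) Unreached endpoint = highest concentration. GI50 is the concentration that inhibits growth by half.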 Active and inactive are the calls of the source. No stated cut-off is given here; in the data, active = GI50 up to about 1.1 µM and inactive = higher.

Assays:
Assay in all cases: growth of human tumour cells (NCI), 48 h
[1] = system: 786-0
[2] = system: A498
[3] = system: A549
[4] = system: ACHN
[5] = system: BT-549
[6] = system: CAKI-1
[7] = system: COLO 205
[8] = system: DU-145
[9] = system: EKVX
[10] = system: HCC 2998
[11] = system: HCT-116
[12] = system: HCT-15
[13] = system: HL-60
[14] = system: HOP-62
[15] = system: HOP-92
[16] = system: HT-29
[17] = system: Hs-578T
[18] = system: IGROV-1
[19] = system: K562
[20] = system: KM12
[21] = system: M14
[22] = system: MCF7
[23] = system: MDA-MB-231
[24] = system: MDA-MB-435
[25] = system: MDA-N
[26] = system: MOLT-4
[27] = system: Malme-3M
[28] = system: NCI-H226
[29] = system: NCI-H23
[30] = system: NCI-H460
[31] = system: NCI-H522
[32] = system: NCI/ADR-RES
[33] = system: OVCAR-3
[34] = system: OVCAR-4
[35] = system: OVCAR-5
[36] = system: OVCAR-8
[37] = system: PC-3
[38] = system: RPMI-8226
[39] = system: RXF 393
[40] = system: SF-268
[41] = system: SF-295
[42] = system: SF-539
[43] = system: SK-MEL-28
[44] = system: SK-MEL-2
[45] = system: SK-MEL-5
[46] = system: SK-OV-3
[47] = system: SN12C
[48] = system: SNB-19
[49] = system: SNB-75
[50] = system: SR
[51] = system: SW-620
[52] = system: T47D
[53] = system: TK-10
[54] = system: U-251
[55] = system: UACC-257
[56] = system: UACC-62
[57] = system: UO-31
[58] = system: CCRF-CEM
[59] = system: LOX IMVI

## CN(C)C/C=C(/c1ccc(Br)cc1)c1cccnc1
[1]
  GI50: 94 µM (inactive)
[2]
  GI50: 20.3 µM (inactive)
[3]
  GI50: 81.8 µM (inactive)
[4]
  GI50: > 100 µM (inactive)
[5]
  GI50: 79.4 µM (inactive)
[6]
  GI50: 92.9 µM (inactive)
[7]
  GI50: 16.6 µM (inactive)
[8]
  GI50: > 100 µM (inactive)
[9]
  GI50: > 100 µM (inactive)
[10]
  GI50: 15.7 µM (inactive)
[11]
  GI50: 71 µM (inactive)
[12]
  GI50: > 100 µM
[13]
  GI50: 0.0165 µM (active)
[14]
  GI50: 45 µM (inactive)
[15]
  GI50: 64.6 µM (inactive)
[16]
  GI50: 78.5 µM (inactive)
[17]
  GI50: 48 µM (inactive)
[18]
  GI50: > 100 µM (inactive)
[19]
  GI50: 32.2 µM (inactive)
[20]
  GI50: 74.1 µM (inactive)
[21]
  GI50: 20.2 µM (inactive)
[22]
  GI50: 63.8 µM (inactive)
[23]
  GI50: 32.7 µM (inactive)
[24]
  GI50: 32.9 µM (inactive)
[25]
  GI50: 38.3 µM (inactive)
[26]
  GI50: 47.9 µM (inactive)
[27]
  GI50: 20.2 µM (inactive)
[28]
  GI50: > 100 µM (inactive)
[29]
  GI50: > 100 µM (inactive)
[30]
  GI50: 81.3 µM (inactive)
[31]
  GI50: 56.4 µM (inactive)
[32]
  GI50: 69.5 µM (inactive)
[33]
  GI50: > 100 µM (inactive)
[34]
  GI50: > 100 µM (inactive)
[35]
  GI50: > 100 µM (inactive)
[36]
  GI50: > 100 µM (inactive)
[37]
  GI50: > 100 µM (inactive)
[38]
  GI50: 34.7 µM (inactive)
[39]
  GI50: 30.6 µM (inactive)
[40]
  GI50: 65.8 µM (inactive)
[41]
  GI50: 22.2 µM (inactive)
[42]
  GI50: > 100 µM (inactive)
[43]
  GI50: 17.9 µM (inactive)
[44]
  GI50: 19.8 µM (inactive)
[45]
  GI50: 19.7 µM (inactive)
[46]
  GI50: 71.1 µM (inactive)
[47]
  GI50: > 100 µM (inactive)
[48]
  GI50: > 100 µM (inactive)
[49]
  GI50: 51.5 µM (inactive)
[50]
  GI50: 34.8 µM (inactive)
[51]
  GI50: > 100 µM (inactive)
[52]
  GI50: 58.7 µM (inactive)
[53]
  GI50: 65.9 µM (inactive)
[54]
  GI50: 98.4 µM (inactive)
[55]
  GI50: 18.2 µM (inactive)
[56]
  GI50: 19.6 µM (inactive)
[57]
  GI50: 42.8 µM (inactive)

## CN(C)Cc1cc(/N=N/c2ccc(Cl)c(Cl)c2)ccc1O
[1]
  GI50: 11.5 µM (inactive)
[2]
  GI50: 11.1 µM (inactive)
[3]
  GI50: 13.9 µM (inactive)
[4]
  GI50: 4.44 µM (inactive)
[5]
  GI50: 13.8 µM (inactive)
[6]
  GI50: 12.6 µM (inactive)
[58]
  GI50: 4.43 µM (inactive)
[7]
  GI50: 2.84 µM (inactive)
[8]
  GI50: 4 µM (inactive)
[9]
  GI50: 12.6 µM (inactive)
[10]
  GI50: 12.1 µM (inactive)
[11]
  GI50: 14.4 µM (inactive)
[12]
  GI50: 6.5 µM
[13]
  GI50: 2.52 µM (inactive)
[14]
  GI50: 2.72 µM (inactive)
[15]
  GI50: 3.3 µM (inactive)
[16]
  GI50: 6.53 µM (inactive)
[17]
  GI50: 6.03 µM (inactive)
[18]
  GI50: 3.4 µM (inactive)
[19]
  GI50: 2.61 µM (inactive)
[20]
  GI50: 4.35 µM (inactive)
[59]
  GI50: 3.4 µM (inactive)
[21]
  GI50: 16 µM (inactive)
[22]
  GI50: 4.46 µM (inactive)
[23]
  GI50: 5.15 µM (inactive)
[24]
  GI50: 11.7 µM (inactive)
[25]
  GI50: 11.4 µM (inactive)
[26]
  GI50: 6.21 µM (inactive)
[27]
  GI50: 15.6 µM (inactive)
[28]
  GI50: 17.9 µM (inactive)
[29]
  GI50: 13.6 µM (inactive)
[30]
  GI50: 6.35 µM (inactive)
[31]
  GI50: 5.41 µM (inactive)
[32]
  GI50: 7.46 µM (inactive)
[33]
  GI50: 6.34 µM (inactive)
[34]
  GI50: 7.28 µM (inactive)
[36]
  GI50: 12.9 µM (inactive)
[37]
  GI50: 11.6 µM (inactive)
[38]
  GI50: 14.3 µM (inactive)
[39]
  GI50: 1.48 µM (inactive)
[40]
  GI50: 3.61 µM (inactive)
[41]
  GI50: 17.8 µM (inactive)
[42]
  GI50: 18.5 µM (inactive)
[43]
  GI50: 13.7 µM (inactive)
[45]
  GI50: 12.4 µM (inactive)
[47]
  GI50: 14.7 µM (inactive)
[48]
  GI50: 13.6 µM (inactive)
[49]
  GI50: 7.13 µM (inactive)
[50]
  GI50: 7.45 µM (inactive)
[51]
  GI50: 11.1 µM (inactive)
[52]
  GI50: 7 µM (inactive)
[53]
  GI50: 10.9 µM (inactive)
[54]
  GI50: 11.5 µM (inactive)
[55]
  GI50: 16.8 µM (inactive)
[56]
  GI50: 5.96 µM (inactive)
[57]
  GI50: 2.49 µM (inactive)

## CO[C@@H]1O[C@H](C(=O)c2ccccc2)[C@H]2OC(C)(C)O[C@@H]12
[1]
  GI50: > 100 µM (inactive)
[2]
  GI50: > 100 µM (inactive)
[5]
  GI50: 68.9 µM (inactive)
[6]
  GI50: > 100 µM (inactive)
[58]
  GI50: 49.7 µM (inactive)
[7]
  GI50: > 100 µM (inactive)
[8]
  GI50: 54.5 µM (inactive)
[9]
  GI50: 86.5 µM (inactive)
[10]
  GI50: > 100 µM (inactive)
[11]
  GI50: 75.3 µM (inactive)
[12]
  GI50: 55.2 µM
[13]
  GI50: 21.1 µM (inactive)
[14]
  GI50: > 100 µM (inactive)
[15]
  GI50: > 100 µM (inactive)
[17]
  GI50: 83 µM (inactive)
[18]
  GI50: > 100 µM (inactive)
[19]
  GI50: > 100 µM (inactive)
[20]
  GI50: > 100 µM (inactive)
[59]
  GI50: > 100 µM (inactive)
[21]
  GI50: > 100 µM (inactive)
[22]
  GI50: > 100 µM (inactive)
[23]
  GI50: 79.3 µM (inactive)
[24]
  GI50: 85.3 µM (inactive)
[25]
  GI50: > 100 µM (inactive)
[26]
  GI50: > 100 µM (inactive)
[28]
  GI50: > 100 µM (inactive)
[29]
  GI50: 94.8 µM (inactive)
[30]
  GI50: 38.1 µM (inactive)
[31]
  GI50: > 100 µM (inactive)
[32]
  GI50: 74.1 µM (inactive)
[33]
  GI50: > 100 µM (inactive)
[34]
  GI50: > 100 µM (inactive)
[35]
  GI50: > 100 µM (inactive)
[36]
  GI50: > 100 µM (inactive)
[37]
  GI50: > 100 µM (inactive)
[38]
  GI50: > 100 µM (inactive)
[39]
  GI50: > 100 µM (inactive)
[40]
  GI50: > 100 µM (inactive)
[41]
  GI50: > 100 µM (inactive)
[42]
  GI50: > 100 µM (inactive)
[44]
  GI50: > 100 µM (inactive)
[45]
  GI50: > 100 µM (inactive)
[46]
  GI50: > 100 µM (inactive)
[47]
  GI50: 89.7 µM (inactive)
[48]
  GI50: > 100 µM (inactive)
[49]
  GI50: 96.8 µM (inactive)
[50]
  GI50: 57.8 µM (inactive)
[51]
  GI50: 56.8 µM (inactive)
[52]
  GI50: > 100 µM (inactive)
[53]
  GI50: > 100 µM (inactive)
[54]
  GI50: > 100 µM (inactive)
[55]
  GI50: > 100 µM (inactive)
[56]
  GI50: > 100 µM (inactive)
[57]
  GI50: > 100 µM (inactive)
